Columns and labels:
Assay type in all cases: functional
MOLT-4 = experiment: Cytotoxicity against human MOLT4 cells assessed as cell growth at 10^-7 M after 48 hrs by SRB assay relative to control; settings: MOLT-4, 48 h, read-out: Activity
MCF7 [1] = experiment: Cytotoxicity against human MCF7 cells after 48 hrs by SRB assay; settings: MCF7, 48 h; for CC50: read-out: LC50 (the source's name)
TK-10 = experiment: Cytotoxicity against human TK10 cells assessed as cell growth at 10^-6 M after 48 hrs by SRB assay relative to control; settings: TK-10, 48 h, read-out: Activity
MDA-MB-468 [2] = experiment: Cytotoxicity against human MDA-MB-468 cells assessed as cell growth at 10^-8 M after 48 hrs by SRB assay relative to control; settings: MDA-MB-468, 48 h, read-out: Activity
HL-60(TB) [3] = experiment: Cytotoxicity against human HL-60(TB) cells assessed as cell growth at 10^-4 M after 48 hrs by SRB assay relative to control; settings: HL-60, 48 h, read-out: Activity
MCF7 [4] = experiment: Cytotoxicity against human MCF7 cells assessed as cell growth at 10^-6 M after 48 hrs by SRB assay relative to control; settings: MCF7, 48 h, read-out: Activity
U-251 [5] = experiment: Cytotoxicity against human U251 cells assessed as cell growth at 10^-6 M after 48 hrs by SRB assay relative to control; settings: U-251, 48 h, read-out: Activity
U-251 [6] = experiment: Cytotoxicity against human U251 cells assessed as cell growth at 10^-7 M after 48 hrs by SRB assay relative to control; settings: U-251, 48 h, read-out: Activity
RXF 393 = experiment: Cytotoxicity against human RXF393 cells assessed as cell growth at 10^-4 M after 48 hrs by SRB assay relative to control; settings: RXF 393, 48 h, read-out: Activity
CAKI-1 = experiment: Cytotoxicity against human Caki1 cells assessed as cell growth at 10^-8 M after 48 hrs by SRB assay relative to control; settings: CAKI-1, 48 h, read-out: Activity
[7] = Cytotoxicity against human HCT15 cells assessed as cell growth at 10^-4 M after 48 hrs by SRB assay relative to control; settings: HCT-15, 48 h, read-out: Activity
RPMI-8226 = experiment: Cytotoxicity against human RPMI8226 cells assessed as cell growth at 10^-8 M after 48 hrs by SRB assay relative to control; settings: RPMI-8226, 48 h, read-out: Activity
ACHN = experiment: Cytotoxicity against human ACHN cells assessed as cell growth at 10^-8 M after 48 hrs by SRB assay relative to control; settings: read-out: Activity
[8] = Cytotoxicity against human HCT116 cells assessed as cell growth at 10^-6 M after 48 hrs by SRB assay relative to control; settings: HCT-116, 48 h, read-out: Activity
HCC 2998 [9] = experiment: Cytotoxicity against human HCC2998 cells assessed as cell growth at 10^-8 M after 48 hrs by SRB assay relative to control; settings: HCC 2998, 48 h, read-out: Activity
SW-620 = experiment: Cytotoxicity against human SW620 cells assessed as cell growth at 10^-8 M after 48 hrs by SRB assay relative to control; settings: SW-620, 48 h, read-out: Activity
HL-60(TB) [10] = experiment: Cytotoxicity against human HL-60(TB) cells assessed as cell growth at 10^-7 M after 48 hrs by SRB assay relative to control; settings: HL-60, 48 h, read-out: Activity
M14 = experiment: Cytotoxicity against human M14 cells assessed as cell growth at 10^-4 M after 48 hrs by SRB assay relative to control; settings: M14, 48 h, read-out: Activity
SN12C = experiment: Cytotoxicity against human SN12C cells assessed as cell growth at 10^-6 M after 48 hrs by SRB assay relative to control; settings: read-out: Activity
MDA-MB-231 [11] = experiment: Cytotoxicity against human MDA-MB-231 cells assessed as cell growth at 10^-4 M after 48 hrs by SRB assay relative to control; settings: MDA-MB-231, 48 h, read-out: Activity
HT-29 = experiment: Cytotoxicity against human HT-29 cells after 48 hrs by SRB assay; settings: HT-29, 48 h; for CC50: read-out: LC50 (the source's name)
HCC 2998 [12] = experiment: Cytotoxicity against human HCC2998 cells assessed as cell growth at 10^-6 M after 48 hrs by SRB assay relative to control; settings: HCC 2998, 48 h, read-out: Activity
MDA-MB-468 [13] = experiment: Cytotoxicity against human MDA-MB-468 cells after 48 hrs by SRB assay; settings: MDA-MB-468, 48 h
NCI-H460 [14] = experiment: Cytotoxicity against human NCI-H460 cells assessed as cell growth at 10^-6 M after 48 hrs by SRB assay relative to control; settings: NCI-H460, 48 h, read-out: Activity
KM12 = experiment: Cytotoxicity against human KM12 cells assessed as cell growth at 10^-4 M after 48 hrs by SRB assay relative to control; settings: KM12, 48 h, read-out: Activity
U-251 [15] = experiment: Cytotoxicity against human U251 cells after 48 hrs by SRB assay; settings: U-251, 48 h
[16] = Cytotoxicity against human UACC257 cells assessed as cell growth at 10^-7 M after 48 hrs by SRB assay relative to control; settings: UACC-257, 48 h, read-out: Activity
[17] = Cytotoxicity against human PC3 cells assessed as cell growth at 10^-8 M after 48 hrs by SRB assay relative to control; settings: PC-3, 48 h, read-out: Activity
SF-268 = experiment: Cytotoxicity against human SF268 cells assessed as cell growth at 10^-4 M after 48 hrs by SRB assay relative to control; settings: SF-268, 48 h, read-out: Activity
NCI-H460 [18] = experiment: Cytotoxicity against human NCI-H460 cells assessed as cell growth at 10^-8 M after 48 hrs by SRB assay relative to control; settings: NCI-H460, 48 h, read-out: Activity
MDA-MB-231 [19] = experiment: Cytotoxicity against human MDA-MB-231 cells assessed as cell growth at 10^-7 M after 48 hrs by SRB assay relative to control; settings: MDA-MB-231, 48 h, read-out: Activity
SR [20] = experiment: Cytotoxicity against human SR cells assessed as cell growth at 10^-6 M after 48 hrs by SRB assay relative to control; settings: read-out: Activity
NCI-H522 = experiment: Cytotoxicity against human NCI-H522 cells assessed as cell growth at 10^-4 M after 48 hrs by SRB assay relative to control; settings: NCI-H522, 48 h, read-out: Activity
K562 = experiment: Cytotoxicity against human K562 cells assessed as cell growth at 10^-4 M after 48 hrs by SRB assay relative to control; settings: K562, 48 h, read-out: Activity
SR [21] = experiment: Cytotoxicity against human SR cells assessed as cell growth at 10^-7 M after 48 hrs by SRB assay relative to control; settings: read-out: Activity
DU-145 = experiment: Cytotoxicity against human DU145 cells assessed as cell growth at 10^-6 M after 48 hrs by SRB assay relative to control; settings: DU-145, 48 h, read-out: Activity

Compound: COc1ccc(CCN2COc3c([C@@H](C)CCC=C(C)C)ccc(C)c3C2)cc1OC
- growth at 0.1 µM (MOLT-4): 89%
- GI50 (MCF7 [1]): 3.29 µM
- TGI (MCF7 [1]): 11 µM
- CC50 (MCF7 [1]): 36.3 µM
- growth at 1 µM (TK-10): 89%
- growth at 0.01 µM (MDA-MB-468 [2]): 75%
- growth at 100 µM (HL-60(TB) [3]): -5%
- growth at 1 µM (MCF7 [4]): 99%
- growth at 1 µM (U-251 [5]): 88%
- growth at 0.1 µM (U-251 [6]): 88%
- growth at 100 µM (RXF 393): -92%
- growth at 0.01 µM (CAKI-1): 94%
- growth at 100 µM [7]: -87%
- growth at 0.01 µM (RPMI-8226): 93%
- growth at 0.01 µM (ACHN): 95%
- growth at 1 µM [8]: 97%
- growth at 0.01 µM (HCC 2998 [9]): 77%
- growth at 0.01 µM (SW-620): 97%
- growth at 0.1 µM (HL-60(TB) [10]): 99%
- growth at 100 µM (M14): -100%
- growth at 1 µM (SN12C): 87%
- growth at 100 µM (MDA-MB-231 [11]): -91%
- GI50 (HT-29): 2.2 µM
- TGI (HT-29): 5.73 µM
- CC50 (HT-29): 22.4 µM
- growth at 1 µM (HCC 2998 [12]): 88%
- GI50 (MDA-MB-468 [13]): 1.23 µM
- LC50 (MDA-MB-468 [13]): 7.08 µM
- TGI (MDA-MB-468 [13]): 9.95 µM
- growth at 1 µM (NCI-H460 [14]): 99%
- growth at 100 µM (KM12): -75%
- GI50 (U-251 [15]): 1.91 µM
- LC50 (U-251 [15]): 11.2 µM
- TGI (U-251 [15]): 4.47 µM
- growth at 0.1 µM [16]: 91%
- growth at 0.01 µM [17]: 94%
- growth at 100 µM (SF-268): -88%
- growth at 0.01 µM (NCI-H460 [18]): 101%
- growth at 0.1 µM (MDA-MB-231 [19]): 82%

Compound: CC(C)=CCC[C@H](C)c1ccc(C)c2c1OCN(CC1CCNCC1)C2
- growth at 0.1 µM (MOLT-4): 104%
- growth at 1 µM (SR [20]): 91%
- GI50 (MCF7 [1]): 6.15 µM
- TGI (MCF7 [1]): 18.7 µM
- CC50 (MCF7 [1]): 45.2 µM
- growth at 1 µM (TK-10): 118%
- growth at 0.01 µM (MDA-MB-468 [2]): 94%
- growth at 100 µM (HL-60(TB) [3]): -73%
- growth at 100 µM (NCI-H522): -84%
- growth at 1 µM (MCF7 [4]): 104%
- growth at 1 µM (U-251 [5]): 100%
- growth at 0.1 µM (U-251 [6]): 101%
- growth at 100 µM (RXF 393): -93%
- growth at 0.01 µM (CAKI-1): 101%
- growth at 100 µM [7]: -83%
- growth at 100 µM (K562): -50%
- growth at 0.01 µM (RPMI-8226): 99%
- growth at 0.1 µM (SR [21]): 98%
- growth at 0.01 µM (ACHN): 100%
- growth at 1 µM [8]: 104%
- growth at 0.01 µM (HCC 2998 [9]): 111%
- growth at 0.01 µM (SW-620): 96%
- growth at 0.1 µM (HL-60(TB) [10]): 91%
- growth at 100 µM (M14): -80%
- growth at 1 µM (SN12C): 102%
- growth at 100 µM (MDA-MB-231 [11]): -77%
- GI50 (HT-29): 3 µM
- TGI (HT-29): 8.38 µM
- CC50 (HT-29): 53 µM
- growth at 1 µM (HCC 2998 [12]): 104%
- GI50 (MDA-MB-468 [13]): 5.01 µM
- LC50 (MDA-MB-468 [13]): 53.1 µM
- TGI (MDA-MB-468 [13]): 18.4 µM
- growth at 1 µM (NCI-H460 [14]): 113%
- growth at 100 µM (KM12): -90%
- growth at 1 µM (DU-145): 102%
- GI50 (U-251 [15]): 2.75 µM
- LC50 (U-251 [15]): 31.6 µM
- TGI (U-251 [15]): 7.61 µM
- growth at 0.01 µM [17]: 102%
- growth at 100 µM (SF-268): -79%
- growth at 0.01 µM (NCI-H460 [18]): 108%
- growth at 0.1 µM (MDA-MB-231 [19]): 101%

Compound: CC(C)=CCC[C@H](C)c1ccc(C)c(CNCC2CCNCC2)c1O
- growth at 0.1 µM (MOLT-4): 96%
- growth at 1 µM (SR [20]): 87%
- GI50 (MCF7 [1]): 4.5 µM
- TGI (MCF7 [1]): 8.34 µM
- CC50 (MCF7 [1]): 15.5 µM
- growth at 1 µM (TK-10): 99%
- growth at 0.01 µM (MDA-MB-468 [2]): 95%
- growth at 100 µM (HL-60(TB) [3]): -63%
- growth at 100 µM (NCI-H522): 9%
- growth at 1 µM (MCF7 [4]): 93%
- growth at 1 µM (U-251 [5]): 94%
- growth at 0.1 µM (U-251 [6]): 93%
- growth at 100 µM (RXF 393): -24%
- growth at 0.01 µM (CAKI-1): 92%
- growth at 100 µM [7]: -11%
- growth at 100 µM (K562): -58%
- growth at 0.1 µM (SR [21]): 84%
- growth at 0.01 µM (ACHN): 96%
- growth at 1 µM [8]: 105%
- growth at 0.01 µM (HCC 2998 [9]): 101%
- growth at 0.01 µM (SW-620): 100%
- growth at 0.1 µM (HL-60(TB) [10]): 101%
- growth at 1 µM (SN12C): 93%
- growth at 100 µM (MDA-MB-231 [11]): -65%
- GI50 (HT-29): 4.51 µM
- TGI (HT-29): 9.45 µM
- CC50 (HT-29): 19.8 µM
- growth at 1 µM (HCC 2998 [12]): 99%
- GI50 (MDA-MB-468 [13]): 3.33 µM
- LC50 (MDA-MB-468 [13]): 14.1 µM
- TGI (MDA-MB-468 [13]): 6.86 µM
- growth at 1 µM (NCI-H460 [14]): 102%
- growth at 100 µM (KM12): -77%
- growth at 1 µM (DU-145): 100%
- GI50 (U-251 [15]): 3.72 µM
- LC50 (U-251 [15]): 15.9 µM
- TGI (U-251 [15]): 7.69 µM
- growth at 0.1 µM [16]: 95%
- growth at 0.01 µM [17]: 97%
- growth at 100 µM (SF-268): 14%
- growth at 0.01 µM (NCI-H460 [18]): 101%
- growth at 0.1 µM (MDA-MB-231 [19]): 101%
